Experimental data reported in article PMC9490236, “Accurate de novo design of membrane-traversing macrocycles” (Cell, 2022).
Where “and” joins values, the source holds several entries; their conditions need not be identical. Equal entries are not always repeated. Where two headings read alike, the source gives them in different places. Where a SMILES comes first, the peptide text is derived from it. [ ]: non-standard residue; d: D form. NMeL = CN[C@@H](CC(C)C)C(=O)O; Sar = CNCC(=O)O

Test: Pharmacokinetics and oral bioavailability of D11.2 in male SD rats (IV, PO, SQ)
Assay type: in vivo
Details: for half-life: read-out: T1/2z (converted); for MRT inf: in vivo
Procedure: In vivo bioavailability assays were conducted in mice and rats. D8.3.p1 and D10.1 were studied in female Balb/C mice by van Voorhis group at University of Washington. D11.2 was evaluated in Sprague Dawley (SD) rats by Robert Griffin’s group at Takeda Pharmaceuticals. D11.3 was studied in the male swiss albino mice by the contract research organization, GVK Biosciences Pvt. Ltd., Hyderabad, India. All animals used in these studies were handled in strict accordance with practices made to minimize suffering. All animal experiments conducted at the University of Washington, USA, and Takeda Pharmaceuticals, USA were approved by the Institutional Animal Care and Use Committee. Animal studies at GVK Biosciences were reviewed and approved by the Institutional Animal Ethics Committee of GVK Biosciences.
We selected four designed macrocycles with diverse structures and in vitro rates of permeability for in vivo oral bioavailability studies in the rodent models. Due to the intensive resource requirements for such studies, these studies were conducted by three different research groups. D8.3.p1 and D10.1 were studied in female Balb/C mice by van Voorhis group at University of Washington. D11.2 was evaluated in Sprague Dawley (SD) rats by Robert Griffin’s group at Takeda Pharmaceuticals. D11.3 was studied in the male swiss albino mice by the contract research organization, GVK Biosciences Pvt. Ltd., Hyderabad, India.
We evaluated the pharmacokinetic properties for D11.2 in male SD rats (n=3). D11.2 was dissolved in 2% DMSO/0.1% Tween80 and dosed by IV, PO, and SQ routes. Plasma samples were collected at multiple time points up to 24 hours. The quantification limit was established to be 2 ng/mL for the assay conditions tested. Pharmacokinetic parameters were modeled using the Phoenix WinNonlin software package.
Dosing vehicle: DMSO (2%) + 0.1% Tween80(IV, PO, SQ)
Dose: 1 mg/kg (PO, SQ, IV) • Sampling times: 0.083, 0.25, 0.5, 1, 2, 4, 6, 8, 24 h (PO, SQ, IV)

[1] = IV 1 mg/kg, individual rats R1, R2, R3, 1 mg/kg
[2] = PO 1 mg/kg, individual rats R4, R5, R6, 1 mg/kg
[3] = SQ 1 mg/kg, individual rats R7, R8, R9
[4] = male, Sprague Dawley, rat, plasma, iv, 1 mg/kg, IV 1 mg/kg, Mean
[5] = male, Sprague Dawley, rat, plasma, iv, 1 mg/kg, IV 1 mg/kg, individual rats R1, R2, R3
[6] = male, Sprague Dawley, rat, plasma, po, 1 mg/kg, PO 1 mg/kg, Mean
[7] = male, Sprague Dawley, rat, plasma, po, 1 mg/kg, PO 1 mg/kg, individual rats R4, R5, R6
[8] = male, Sprague-Dawley, rat, plasma, subcutaneous, 1 mg/kg, SQ 1 mg/kg, Mean
[9] = male, Sprague-Dawley, rat, plasma, subcutaneous, 1 mg/kg, SQ 1 mg/kg, individual rats R7, R8, R9

CC[C@@H](C)[C@H]1NC(=O)[C@@H]2CCCN2C(=O)[C@@H]([C@H](C)CC)NC(=O)CN(C)C(=O)[C@H](CC(C)C)NC(=O)[C@@H](Cc2ccccc2)NC(=O)[C@H](CC(C)C)N(C)C(=O)[C@H]2CCCN2C(=O)[C@@H](CC(C)C)NC(=O)[C@H](CC(C)C)NC(=O)[C@H]2CCCN2C1=O [Design D11.2, DILE DPRO LEU DLEU DPRO *LEU DPHE LEU *GLY DILE PRO] (cyclo(L[Sar][dI]P[dI][dP]L[dL][dP][NMeL][dF]))
AUClast [1]: 702 ng·h/mL and 858 ng·h/mL | AUC∞ [1]: 738 ng·h/mL and 926 ng·h/mL | C0 [1]: 669 ng/mL and 1234 ng/mL | CL [1]: 22.5 mL/min/kg and 18 mL/min/kg | Cmax [1]: 796 ng/mL and 499 ng/mL | MRT∞ [1]: 2.34 h and 2.51 h | T1/2z [1]: 2.05 h and 2.74 h | Vss [1]: 3.17 L/kg and 2.72 L/kg | Vz [1]: 4.00 L/kg and 4.27 L/kg | %F [2]: 13.0% and 8.18% | AUClast [2]: 89.3 ng·h/mL and 59.1 ng·h/mL | AUC∞ [2]: 95.9 ng·h/mL and 75.8 ng·h/mL | Cmax [2]: 35.2 ng/mL and 28.2 ng/mL | MRT∞ [2]: 3.02 h and 3.86 h | T1/2z [2]: 2.06 h and 2.53 h | Tmax [2]: 0.250 h | %F [3]: 160% and 105% | AUClast [3]: 741 ng·h/mL and 841 ng·h/mL | AUC∞ [3]: 777 ng·h/mL and 853 ng·h/mL | Cmax [3]: 99.4 ng/mL and 95.1 ng/mL | MRT∞ [3]: 7.64 h and 6.14 h | T1/2z [3]: 5.00 h and 3.71 h | AUC(0-inf) [4]: 780 ng·h/mL | AUC(0-t) [4]: 734 ng·h/mL | clearance [4]: 21.8 mL/min/kg | C0 (male, Sprague Dawley, rat, plasma, iv, 1 mg/kg, IV 1 mg/kg, Mean, read-out: C0): 843 ng/mL | Cmax (male, Sprague Dawley, rat, plasma, iv, 1 mg/kg, IV 1 mg/kg, Mean, read-out: Cmax): 605 ng/mL | half-life [4]: 2.29 h | Tmax (male, Sprague Dawley, rat, plasma, iv, 1 mg/kg, IV 1 mg/kg, Mean, read-out: Tmax): 0.0833 h | Vd (male, Sprague Dawley, rat, plasma, iv, 1 mg/kg, IV 1 mg/kg, Mean, read-out: Vss): 3.04 L/kg | Vd (male, Sprague Dawley, rat, plasma, iv, 1 mg/kg, IV 1 mg/kg, Mean, read-out: Vz): 4.24 L/kg | AUC(0-inf) [5]: 674 ng·h/mL | AUC(0-t) [5]: 642 ng·h/mL | clearance [5]: 24.7 mL/min/kg | C0 (male, Sprague Dawley, rat, plasma, iv, 1 mg/kg, IV 1 mg/kg, individual rats R1, R2, R3, read-out: C0): 626 ng/mL | Cmax (male, Sprague Dawley, rat, plasma, iv, 1 mg/kg, IV 1 mg/kg, individual rats R1, R2, R3, read-out: Cmax): 519 ng/mL | half-life [5]: 2.08 h | Tmax (male, Sprague Dawley, rat, plasma, iv, 1 mg/kg, IV 1 mg/kg, individual rats R1, R2, R3, read-out: Tmax): 0.0833 h | Vd (male, Sprague Dawley, rat, plasma, iv, 1 mg/kg, IV 1 mg/kg, individual rats R1, R2, R3, read-out: Vss): 3.23 L/kg | Vd (male, Sprague Dawley, rat, plasma, iv, 1 mg/kg, IV 1 mg/kg, individual rats R1, R2, R3, read-out: Vz): 4.46 L/kg | AUC(0-inf) [6]: 84.3 ng·h/mL | AUC(0-t) [6]: 71.7 ng·h/mL | bioavailability [6]: 11.1% | Cmax (male, Sprague Dawley, rat, plasma, po, 1 mg/kg, PO 1 mg/kg, Mean, read-out: Cmax): 31.6 ng/mL | half-life [6]: 2.33 h | Tmax (male, Sprague Dawley, rat, plasma, po, 1 mg/kg, PO 1 mg/kg, Mean, read-out: Tmax): 0.416 h | AUC(0-inf) [7]: 81.3 ng·h/mL | AUC(0-t) [7]: 66.8 ng·h/mL | bioavailability [7]: 12.1% | Cmax (male, Sprague Dawley, rat, plasma, po, 1 mg/kg, PO 1 mg/kg, individual rats R4, R5, R6, read-out: Cmax): 31.3 ng/mL | half-life [7]: 2.42 h | Tmax (male, Sprague Dawley, rat, plasma, po, 1 mg/kg, PO 1 mg/kg, individual rats R4, R5, R6, read-out: Tmax): 0.5 h | Cmax (male, Sprague Dawley, rat, plasma, sc, 1 mg/kg, SQ 1 mg/kg, Mean, read-out: Cmax): 109 ng/mL | half-life (male, Sprague Dawley, rat, plasma, sc, 1 mg/kg, SQ 1 mg/kg, Mean): 4.41 h | Tmax (male, Sprague Dawley, rat, plasma, sc, 1 mg/kg, SQ 1 mg/kg, Mean, read-out: Tmax): 4 h | Cmax (male, Sprague Dawley, rat, plasma, subcutaneous, 1 mg/kg, SQ 1 mg/kg, individual rats R7, R8, R9, read-out: Cmax): 131 ng/mL | half-life (male, Sprague Dawley, rat, plasma, subcutaneous, 1 mg/kg, SQ 1 mg/kg, individual rats R7, R8, R9): 4.52 h | Tmax (male, Sprague Dawley, rat, plasma, subcutaneous, 1 mg/kg, SQ 1 mg/kg, individual rats R7, R8, R9, read-out: Tmax): 4 h | bioavailability (male, Sprague-Dawley, rat, plasma, sc, 1 mg/kg, SQ 1 mg/kg, individual rats R7, R8, R9): 92.1% | AUC(0-inf) [8]: 903 ng·h/mL | AUC(0-t) [8]: 874 ng·h/mL | bioavailability [8]: 119% | AUC(0-inf) [9]: 1080 ng·h/mL | AUC(0-t) [9]: 1040 ng·h/mL | MRT inf (rat, 1 mg/kg, SQ 1 mg/kg, Mean): 6.86 h | MRT inf (rat, 1 mg/kg, SQ 1 mg/kg, individual rats R7, R8, R9): 6.81 h | MRT inf (rat, iv, 1 mg/kg, IV 1 mg/kg, Mean): 2.35 h | MRT inf (rat, iv, 1 mg/kg, IV 1 mg/kg, individual rats R1, R2, R3): 2.18 h | MRT inf (rat, po, 1 mg/kg, PO 1 mg/kg, Mean): 3.42 h | MRT inf (rat, po, 1 mg/kg, PO 1 mg/kg, individual rats R4, R5, R6): 3.38 h
